Structures are written as SMILES. ≈ marks a conversion by molar mass, not a printed value. Where “and” joins values, the source holds several entries; their conditions need not be identical. Equal values may be shown once. Where only a bound is given, the exact number is not on record here.

Our source for the MIC values is DBAASP.

Common to all, as to assay: ≥ marks a high value that may be exact or a test limit, other limits are often not marked, values filed in µg/mL are converted to µM
Test [1] has as its system Escherichia coli BL21.
Test [2] deals with Pseudomonas syringae.
The subject of test [3] is Streptococcus pyogenes GAS M1T1.
For test [4], the system named is Xanthomonas axonopodis pv. phaseoli ATCC 9563.
The subject of test [5] is Pseudomonas aeruginosa PAO1.
The subject of test [6] is Acinetobacter baumannii KCTC 2508.
In test [7] the test system is Klebsiella pneumoniae KCTC 2208.
Test [8] deals with Pseudomonas aeruginosa ATCC 27853.
The subject of test [9] is Acinetobacter baumannii.
The test system of test [10] is Pseudomonas aeruginosa.
In test [11] the test system is Klebsiella pneumoniae ATCC BAA-2146.
Test [12] deals with Acinetobacter baumannii ATCC 19606.
Test [13] deals with Escherichia coli ATCC 25922.
Test [14] has as its system Klebsiella pneumoniae.
For test [15], the system named is Candida albicans ATCC 90028.
The subject of test [16] is Klebsiella pneumoniae ATCC 700603.
Test [17] concerns Bacillus subtilis ATCC 6051.
Test [18] has as its system Cryptococcus neoformans ATCC 208821.
Test [19] relates to Staphylococcus aureus ATCC 43300.
Test [20] concerns Klebsiella pneumoniae ATCC 13883.
Test [21] deals with Staphylococcus aureus ATCC 6538.
Test [22] deals with Staphylococcus epidermidis ATCC 12228.
The test system of test [23] is Staphylococcus aureus ATCC 25923.
The subject of test [24] is Bacillus subtilis CCT 2576.
The subject of test [25] is Candida glabrata ATCC 2001.
Test [26] deals with Escherichia coli ATCC 43827.
For test [27], the system named is Candida tropicalis ATCC 750.
Test [28] has as its system Candida albicans ATCC 14053.
The subject of test [29] is Bacillus subtilis ATCC 23857.
The subject of test [30] is Cronobacter sakazakii ATCC 29544.
For test [31], the system named is Pseudomonas aeruginosa ATCC 15422.
The test system of test [32] is Candida krusei ATCC 6258.
Test [33] relates to Candida albicans.
In test [34] the test system is Staphylococcus aureus ATCC 29213.
The subject of test [35] is Escherichia coli ML-35.
Test [36] deals with Candida glabrata.

By MIC is commonly meant the lowest concentration that inhibits growth of the organism. For `CC[C@H](C)[C@H](NC(=O)[C@H](CCC(=O)O)NC(=O)[C@H](CC(N)=O)NC(=O)[C@H](CCCCN)NC(=O)[C@H](CC(C)C)NC(=O)[C@H](Cc1ccc(O)cc1)NC(=O)[C@H](CCCCN)NC(=O)[C@H](CCCN=C(N)N)NC(=O)[C@@H](NC(=O)[C@@H](NC(=O)[C@H](CCC(=O)O)NC(=O)[C@H](CCCCN)NC(=O)[C@H](Cc1c[nH]c2ccccc12)NC(=O)[C@H](C)N)[C@@H](C)O)[C@@H](C)CC)C(=O)N[C@@H](CCCCN)C(=O)N[C@@H](CCCCN)C(=O)N[C@@H](CCCCN)C(=O)N[C@@H](Cc1c[nH]c2ccccc12)C(=O)N[C@@H](CCCN=C(N)N)C(=O)N[C@@H](CCCCN)C(=O)N[C@@H](C)C(=O)N[C@H](C(=O)N[C@H](C(=O)N[C@@H](C)C(=O)N[C@@H](Cc1c[nH]c2ccccc12)C(=O)O)[C@@H](C)CC)C(C)C` [AWKETIRKYLKNEIKKKWRKAVIAW], the MIC in test [1] was determined as 2 µM (≈ 6.38 µg/mL); in test [2], 8 µM (≈ 25.5 µg/mL); in test [3], 10 µM (≈ 31.9 µg/mL); in test [4], 2 µM (≈ 6.38 µg/mL); in test [5], 8 µM (≈ 25.5 µg/mL).
Regarding `CC[C@H](C)[C@H](N)C(=O)N[C@@H](C)C(=O)N[C@@H](CCCN=C(N)N)C(=O)N[C@@H](CCCN=C(N)N)C(=O)N[C@@H](C)C(=O)N[C@@H](CC(C)C)C(=O)N[C@@H](CCCCN)C(=O)N[C@@H](CCCCN)C(=O)N[C@@H](C)C(=O)N[C@@H](CCCCN)C(=O)N[C@@H](CCCN=C(N)N)C(=O)N[C@@H](C)C(=O)N[C@@H](C)C(=O)N[C@@H](Cc1cnc[nH]1)C(=O)N[C@@H](CCCCN)C(=O)N[C@H](C(=O)N1CCC[C@H]1C(=O)N[C@@H](C)C(=O)N[C@@H](CS)C(=O)N[C@@H](CCCCN)C(=O)N[C@@H](CCCCN)C(=O)N[C@@H](Cc1ccccc1)C(=O)NCC(=O)N[C@@H](CCCN=C(N)N)C(=O)N[C@@H](CCCN=C(N)N)C(N)=O)[C@@H](C)CC` [IARRALKKAKRAAHKIPACKKFGRR], the minimum inhibitory concentration (MIC) in test [6] amounted to 16 µM (≈ 46 µg/mL); in test [7] it was 8 µM (≈ 23 µg/mL); in test [8], 2 µM (≈ 5.75 µg/mL).
In the case of `CC(C)[C@@H]1NC(=O)[C@H](CCCN=C(N)N)NC(=O)[C@H](Cc2ccccc2)NC(=O)[C@@H](NC(=O)[C@H](Cc2c[nH]c3ccccc23)NC(=O)[C@@H](N)CCCCN)CSSC[C@@H](C(=O)N[C@@H](CCCN=C(N)N)C(=O)O)NC(=O)[C@H](CCCN=C(N)N)NC(=O)[C@H](CCCN=C(N)N)NC(=O)[C@H](Cc2ccc(O)cc2)NC(=O)[C@@H]2CSSC[C@H](NC1=O)C(=O)N[C@@H](Cc1ccc(O)cc1)C(=O)N[C@@H](CCCN=C(N)N)C(=O)NCC(=O)N[C@@H](C)C(=O)N2` [KWCFRVCYRGACYRRCR], the MIC worked out at 0.112 µM (≈ 0.25 µg/mL) in test [9]; 0.449 µM (≈ 0.998 µg/mL) in [10]; 0.112 µM (≈ 0.25 µg/mL) in [11]; 0.112 µM (≈ 0.25 µg/mL) in [12]; 0.0561 µM (≈ 0.125 µg/mL) in test [13]; 3.59 µM (≈ 7.99 µg/mL) in test [14]. Besides, the minimum inhibitory concentration (MIC) in [15] amounted to 0.898 µM (≈ 2 µg/mL); in test [16], 0.225 µM (≈ 0.499 µg/mL); in [17], 0.0561 µM (≈ 0.125 µg/mL); in test [8] it was 0.112 µM (≈ 0.25 µg/mL); in test [18] it was 0.225 µM (≈ 0.499 µg/mL); in test [19] it was 0.898 µM (≈ 2 µg/mL). The minimal inhibitory concentration (MIC) in [20] is 0.112 µM (≈ 0.25 µg/mL).
As to `CC[C@H](C)[C@H](N)C(=O)N[C@@H](CC(C)C)C(=O)NCC(=O)N[C@H](C(=O)N[C@H](C(=O)N[C@@H](CC(C)C)C(=O)NCC(=O)N[C@@H](CC(C)C)C(=O)N[C@@H](CC(C)C)C(=O)N[C@@H](CCCCN)C(=O)N[C@@H](CO)C(=O)N[C@@H](CC(C)C)C(N)=O)[C@@H](C)CC)[C@@H](C)O` [ILGTILGLLKSL], the minimum inhibitory concentration (MIC) in test [21] was 12.1 µM (≈ 15 µg/mL); in [22] it was 8 µM and > 4 µM; in test [23], 8 µM (≈ 9.92 µg/mL); in test [13], 32 µM (≈ 39.7 µg/mL); in [24], 12.1 µM (≈ 15 µg/mL); in test [25] it was 16 µM (≈ 19.8 µg/mL). Further, the minimal inhibitory concentration (MIC) was ≥ 32 µM in test [26]; 4 µM (≈ 4.96 µg/mL) in test [27]; 128 µM (≈ 159 µg/mL) in test [16]; 16 µM (≈ 19.8 µg/mL) in test [28]; 4 µM (≈ 4.96 µg/mL) in [29]; ≥ 64 µM in test [30]. Besides, the minimal inhibitory concentration (MIC) in test [31] is ≥ 202 µM; in test [32] it was ≥ 32 µM; in test [33], 22.6 µM (≈ 28 µg/mL); in test [34], 4 µM (≈ 4.96 µg/mL); in [35], ≥ 64 µM; in test [36], 16 µM (≈ 19.8 µg/mL).
Regarding `CC[C@H](C)[C@H](N)C(=O)N[C@@H](C)C(=O)N[C@@H](CCCN=C(N)N)C(=O)N[C@@H](CCCN=C(N)N)C(=O)N[C@@H](C)C(=O)N[C@@H](CC(C)C)C(=O)N[C@@H](CCCCN)C(=O)N[C@@H](CCCCN)C(=O)N[C@@H](C)C(=O)N[C@@H](CCCCN)C(=O)N[C@@H](CCCN=C(N)N)C(=O)N[C@@H](C)C(=O)N[C@@H](C)C(=O)N[C@@H](Cc1cnc[nH]1)C(=O)N[C@@H](CCCCN)C(=O)N[C@H](C(=O)N1CCC[C@H]1C(=O)N[C@@H](C)C(=O)N[C@@H](C)C(=O)N[C@@H](CCCCN)C(=O)N[C@@H](CCCCN)C(=O)N[C@@H](Cc1ccccc1)C(=O)NCC(=O)N[C@@H](CCCN=C(N)N)C(=O)N[C@@H](CCCN=C(N)N)C(N)=O)[C@@H](C)CC` [IARRALKKAKRAAHKIPAAKKFGRR], the MIC amounted to 8 µM (≈ 22.7 µg/mL) in test [6], 2 µM (≈ 5.69 µg/mL) in test [7] and 16 µM (≈ 45.5 µg/mL) in [8].
As to `CC[C@H](C)[C@@H]1NC(=O)CNC(=O)[C@H](CCCN=C(N)N)NC(=O)[C@H](C)NC(=O)[C@@H]2CSSC[C@H](NC1=O)C(=O)N[C@@H](Cc1ccc(O)cc1)C(=O)N[C@@H](CCCN=C(N)N)C(=O)N[C@@H](CCCN=C(N)N)C(=O)N[C@H](C(=O)N[C@@H](CCCN=C(N)N)C(=O)O)CSSC[C@H](NC(=O)[C@H](Cc1c[nH]c3ccccc13)NC(=O)[C@@H](N)CCCCN)C(=O)N[C@@H](Cc1ccccc1)C(=O)N[C@@H](CCCN=C(N)N)C(=O)N[C@@H](C(C)C)C(=O)N2` [KWCFRVCARGICYRRCR], the MIC in [9] came out at 0.23 µM (≈ 0.499 µg/mL); in test [10] it was 0.919 µM (≈ 2 µg/mL); in test [11], 0.23 µM (≈ 0.499 µg/mL); in test [12] it was 0.0574 µM (≈ 0.125 µg/mL); in [13], 0.0276 µM (≈ 0.06 µg/mL); in test [14], 3.68 µM (≈ 7.99 µg/mL). The MIC was found to be 3.68 µM (≈ 7.99 µg/mL) in test [15]; 0.0574 µM (≈ 0.125 µg/mL) in [16]; 0.115 µM (≈ 0.25 µg/mL) in [17]; 0.459 µM (≈ 0.998 µg/mL) in [8]; 0.23 µM (≈ 0.499 µg/mL) in test [18]; 1.84 µM (≈ 3.99 µg/mL) in test [19]. Besides, in test [20], the MIC worked out at 0.0574 µM (≈ 0.125 µg/mL).
